Earlier results on one substance are cited in patent publication US4312857A, “Novel derivatives of beta-endorphin, intermediates therefor and compositions and methods employing said derivatives” (The United States of America as represented by the Veterans, priority 1977, dated 1982).

Data set [1] has as its system partially purified brain opiate receptor sites.
For a further data set, the system named is rat. The settings on record: injected directly into the brain of the rat.

Turning to “H-Tyr-Gly-Gly-Phe-Met-OH [methionine enkephalin]”, the “binding to partially purified brain opiate receptor sites” value in data set [1] was “binds stereo-specifically”. Moreover, the analgesic effect entry in the data set on rat is on record as “weak analgesic agent of short duration”.
